From patent US10806744B2, “Edible composition” (Conopco, Inc., priority 2015, dated 2020)
“And” between values parts separate entries of the source, which are not always exact repeats. Identical values can stand only once.

Experiments:
[1] = tested on: glucose transport across differentiated Caco-2 cell monolayers; experiment: Glucose transport cell model: 5 mM D-glucose 15 minutes, then 25 mM for 45 minutes, cumulative glucose transport; assay type: cell-based, human; parameters: unit not given here; details: duplicate
Experimental: Caco-2 cells were cultured and routinely passaged as described in Example 1.
After the last incubation, all of the retained PBS(+) from each step (i.e. at 15, 30, 45 and 60 minutes) was assayed for glucose levels as described in Example 1, and the total cumulative glucose transport calculated. The localised changes in luminal glucose concentrations described and illustrated in example 1 are mimicked in-vitro through an initial short incubation of differentiated Caco-2 cells with a low level of D-glucose (5 mM for 15 minutes) immediately followed by a sustained incubation with a high level of D-glucose (final concentration of 25 mM for 45 minutes).
In the above table, every test pairing of a homisoflavonoid (HIF) and a flavonoid monoglucoside (FM) has 5 values reported: • 1. No Compound (NC)+NC • 2.
Synergy is achieved when the inhibition caused by the combination of HIF and FM is greater than the sum of the inhibition due to HIF alone added to the inhibition due to FM alone.

SGLT1 = molecular target: T1, SGLT1 (Homo sapiens, UniProt P13866); experiment: Glucose transport inhibitor cell screening assay, 5 mM D-glucose for 15 minutes; details: for inhibition at 300 µM: Caco-2, read-out: % Glucose transport inhibiton 5 mM
T1 sequence (P13866 1-664): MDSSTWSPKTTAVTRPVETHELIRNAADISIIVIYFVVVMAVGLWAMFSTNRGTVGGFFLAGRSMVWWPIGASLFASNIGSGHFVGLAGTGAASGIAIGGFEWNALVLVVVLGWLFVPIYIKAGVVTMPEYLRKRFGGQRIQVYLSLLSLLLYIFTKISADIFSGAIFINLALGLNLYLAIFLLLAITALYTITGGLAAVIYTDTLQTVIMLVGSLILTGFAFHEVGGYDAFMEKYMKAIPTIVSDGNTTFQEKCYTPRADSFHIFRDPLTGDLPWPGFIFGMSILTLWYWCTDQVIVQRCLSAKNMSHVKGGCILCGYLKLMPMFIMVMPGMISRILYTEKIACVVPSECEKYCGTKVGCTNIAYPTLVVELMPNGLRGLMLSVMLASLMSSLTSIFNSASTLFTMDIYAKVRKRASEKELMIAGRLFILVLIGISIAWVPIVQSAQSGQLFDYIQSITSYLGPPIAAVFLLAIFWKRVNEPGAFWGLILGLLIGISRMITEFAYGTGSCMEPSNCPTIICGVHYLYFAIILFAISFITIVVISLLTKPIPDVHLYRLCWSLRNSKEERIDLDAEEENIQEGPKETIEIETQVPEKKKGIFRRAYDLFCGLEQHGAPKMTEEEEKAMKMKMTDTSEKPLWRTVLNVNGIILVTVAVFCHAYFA
Experimental: (§1) Human epithelial colorectal adenocarcinoma (Caco-2) cells were obtained from the American Type Culture Collection (ATCC) and cultured in Growth Medium consisting of Dulbecco's modified Eagle's medium (containing Glutamax-1, 4.5 g/L D-glucose and 25 mM 4-(2-hydroxyethyl)-1-piperazine ethanesulphonic acid (Hepes) (Invitrogen)), 10% foetal bovine serum (Sigma), 1% non-essential amino acids (Invitrogen) and 1 mM sodium pyruvate (Sigma)). The cells were routinely passaged at approximately 80% confluence using TrypLE™ Express Stable Trypsin-Like Enzyme (Invitrogen) to detach the cells, and seeded at approximately 114 cells per mm^2 in fresh tissue culture flasks. Only cells between the passage numbers 45 and 49 were used for experiments.
(§2) Corning® HTS Transwell® 96 well permeable insert supports (Sigma) were collagen coated with 40 μl of 50 μg/ml rat tail collagen type I (BD Biosciences) in 0.02 M acetic acid for one hour at room temperature under sterile conditions. The inserts were washed twice in phosphate buffered saline (PBS (Invitrogen)) and the Caco-2 cells seeded into the inserts at 1.0×10^6 cell/ml (75 μl per insert) in Growth Medium and 30 ml of Growth Medium added to the feeder plate below. The cells were left to attach to the collagen matrix and form monolayers over 48 hours at 37° C., 5% CO2. Both inserts and feeder plate were washed in PBS and the cells incubated with BD Entero-STIM™ Enterocyte Differentiation Medium containing MITO+™ Serum Extender solution (both BD Biosciences), 75 μl per insert and 30 ml in the feeder plate, for a further 48 hours at 37° C., 5% CO2.
(§3) Differentiated cell monolayers were washed gently in Dulbecco's Phosphate Buffered Saline containing CaCl2 and MgCl2 (PBS(+) (Invitrogen)) and the inserts transferred to a new Corning® HTS Transwell®-96 well receiver plate (Sigma). The cells were incubated with fresh PBS(+) (75 μl per insert and 225 μl per well) for 60 minutes at 37° C., 5% CO2. The PBS(+) was gently aspirated and replaced with 75 μl per insert of either 5 mM D-glucose (Sigma)±test compound or 25 mM D-glucose±test compound in triplicate and 225 μl per well of PBS(+) quickly added to each well. The 5 mM glucose wells and the 25 mM glucose wells were incubated at 37° C., 5% CO2 for 15 minutes and 30 minutes, respectively. […] The cell inserts were transferred to a new receiver plate, the supernatant gently aspirated from the cells and replaced with 100 μl of 100 μM of Lucifer Yellow (Sigma) solution to confirm the integrity of the monolayers. 225 μl of PBS(+) was added to each well and incubated at 37° C., 5% CO2 for 1 hour. The cell inserts were then discarded and the permeability of the membranes to Lucifer Yellow checked by measuring the fluorescence of the samples at 485 nm (excitation) and 530 nm (emission) on a Spectramax Gemini EM fluorescence microplate reader.
(§4) The amount of glucose transported across the cell monolayers was measured using a glucose assay based on Invitrogen's Amplex Red Glucose/Glucose oxidase Assay Kit. Briefly, 50 μl of each test sample was transferred to a black sided/clear bottom 96-well plate (Greiner Bio-One) to which 100 μl of reaction buffer (0.5 μl 10 mM Ampliflu Red, 1 μl 10 U/ml Horse Radish peroxidase, 1 μl 100 U/ml glucose oxidase and 97.5 μl PBS (all Sigma)) was added. After 10 minutes incubation at room temperature, the fluorescence of the samples was measured at 530 nm (excitation) and 590 nm (emission) on a Spectramax Gemini EM fluorescence microplate reader and the glucose concentration extrapolated from a standard curve.
(§5) At higher D-glucose concentrations, the SGLT1 transporter becomes saturated and consequently the majority of glucose transport across the monolayer is driven by the low affinity, high capacity GLUT2 transporter that is targeted to the apical membrane only following an initial SGLT1-dependent transport of glucose.

SGLT1 and GLUT2 = experiment: Assigned class of transporter inhibited, from Caco-2 screening at 5 mM and 25 mM D-glucose; assay type: cell-based, human; details: from % inhibition at 5 mM and 25 mM D-glucose; compound 300 μM
GLUT2 = molecular target: T2, GLUT2 (Homo sapiens, UniProt P11168); experiment: Glucose transport inhibitor cell screening assay, 25 mM D-glucose for 30 minutes; details: for inhibition at 300 µM: Caco-2, read-out: % Glucose transport inhibiton 25 mM; for identified as inhibitors of GLUT2: Caco-2 cell assay
T2 sequence (P11168 1-524): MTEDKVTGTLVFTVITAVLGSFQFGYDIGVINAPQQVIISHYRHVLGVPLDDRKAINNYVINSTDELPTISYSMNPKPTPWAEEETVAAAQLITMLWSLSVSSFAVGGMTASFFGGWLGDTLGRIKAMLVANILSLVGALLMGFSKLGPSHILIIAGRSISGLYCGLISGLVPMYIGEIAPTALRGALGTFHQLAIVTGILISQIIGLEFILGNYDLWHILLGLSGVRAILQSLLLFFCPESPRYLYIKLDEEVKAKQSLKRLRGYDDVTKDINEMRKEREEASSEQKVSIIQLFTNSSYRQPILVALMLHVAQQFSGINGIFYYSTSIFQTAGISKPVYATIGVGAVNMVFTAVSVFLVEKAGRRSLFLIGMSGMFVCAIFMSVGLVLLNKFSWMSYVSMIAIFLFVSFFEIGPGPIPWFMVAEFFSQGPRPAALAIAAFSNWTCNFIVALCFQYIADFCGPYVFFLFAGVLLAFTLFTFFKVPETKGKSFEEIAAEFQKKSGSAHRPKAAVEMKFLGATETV
Experimental: as §1, §2, §3, §4, §5

[2] = homoisoflavonoid 5 uM alone, added at 25 mM glucose step (NC at 5 mM)

inhibition at 300 µM (SGLT1) [%] | inhibition at 300 µM (GLUT2) [%] | identified as inhibitors of GLUT2 (GLUT2) | identified as inhibitors of SGLT1 (SGLT1; Caco-2 cell assay) | Structure (SMILES) | Cumulative (AVE) glucose transport [1, 2] | Class (assigned class of transporter inhibited) (SGLT1 and GLUT2) | Cumulative (AVE) glucose transport ([1]; flavonoid monoglucoside 300 uM alone, added at 5 mM glucose step only (NC at 25 mM), listed as T) | Cumulative (AVE) glucose transport ([1]; flavonoid monoglucoside 300 uM alone, added at 25 mM glucose step only (NC at 5 mM), listed as T)
39.3 ± 2.17 | 27.7 ± 3.7 | inhibitors of GLUT2 |  | Cc1c(O)c(C)c2c(c1O)C(=O)[C@H](Cc1ccc3c(c1)OCO3)CO2 [MOA, methylophiopogonanone A] | 231.69 | GLUT2 (GLUT2 inhibitors having ≥20% inhibition at both 5 mM and 25 mM D-glucose levels) |  | 
46.2 ± 2.04 | 30.6 ± 3.2 | inhibitors of GLUT2 |  | COc1ccc(C[C@@H]2COc3c(C)c(O)c(C)c(O)c3C2=O)cc1 [MOB, methylophiopogonanone B] | 200.59 | GLUT2 (GLUT2 inhibitors having ≥20% inhibition at both 5 mM and 25 mM D-glucose levels) |  | 
29.4 ± 0.62 | 4.92 ± 2.08 |  | inhibitors of SGLT1 | COc1c(O[C@@H]2O[C@H](CO)[C@@H](O)[C@H](O)[C@H]2O)cc2occ(-c3ccc(O)cc3)c(=O)c2c1O [Tectoridin] |  | SGLT1 | 346.92 and 321.4 and 298.40 | 395.85 and 304.5 and 298.98
